In PubChem BioAssay AID1259411 (Chemical Carcinogenesis Research Information System (CCRIS), 2018):
Activity calls are given as the source filed them. How the calls were made is not given here.

System: rodent carcinogenicity bioassays, tumor incidence
Test: CCRIS carcinogenicity studies
Conditions: Dose: 0, Dose: 0
Method in brief: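 NCI-built, expert-reviewed records of carcinogenicity and related test outcomes (mutagenicity, tumor promotion/inhibition) compiled from published and report sources, historical span 1985-2011, not updated.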

For `CN(CCCC(=O)c1cccnc1)N=O`, the carcinogen call (Species: HAMSTER, Strain/Sex: SYRIAN/FEMALE, Route: INTRATRACHEAL, 0.05, 5, 50 MG/KG ONCE ADMINISTERED TO MOTHERS ON DAY 15 OF GESTATION (STUDY DURATION: 59 WK), 0.05, 5, 50 MG/KG ONCE ADMINISTERED TO MOTHERS ON DAY 15 OF GESTATION (STUDY DURATION: 59 WK), Tumor Site: Type of Lesion: NASAL CAVITY: ADENOCARCINOMA, ADRENAL GLAND: TUMOR, PANCREAS: ADENOMA, Tumor Site: Type of Lesion: NASAL CAVITY: ADENOCARCINOMA, ADRENAL GLAND: TUMOR, PANCREAS: ADENOMA) was “active; positive”, the carcinogen call (Species: HAMSTER, Strain/Sex: SYRIAN/FEMALE, Route: SUBCUTANEOUS, 1, 5, 10, 20 MG/KG ONCE ADMINISTERED TO MOTHERS ON DAY 15 OF GESTATION (STUDY DURATION: 59 WK), 1, 5, 10, 20 MG/KG ONCE ADMINISTERED TO MOTHERS ON DAY 15 OF GESTATION (STUDY DURATION: 59 WK), Tumor Site: Type of Lesion: NASAL CAVITY: ADENOCARCINOMA, ADRENAL GLAND: TUMOR) was “active; positive” and the carcinogen call (Species: HAMSTER, Strain/Sex: SYRIAN/FEMALE, Route: TRANSPLACENTAL, 50 MG/KG IN DISTILLED WATER ADMINISTERED INTRATRACHEALLY TO MOTHERS ON DAY 15 OF GESTATION (STUDY DURATION: 48 WK), Tumor Site: Type of Lesion: ADRENAL GLAND: TUMOR, COLON: TUMOR, LYMPHOID TISSUE: LYMPHOMA, Tumor Site: Type of Lesion: ADRENAL GLAND: TUMOR, COLON: TUMOR, LYMPHOID TISSUE: LYMPHOMA) was “active; positive”. For the same compound, the carcinogen call (Species: HAMSTER, Strain/Sex: SYRIAN/MALE, Route: INTRATRACHEAL, 0.05, 5, 50 MG/KG ONCE ADMINISTERED TO MOTHERS ON DAY 15 OF GESTATION (STUDY DURATION: 59 WK), 0.05, 5, 50 MG/KG ONCE ADMINISTERED TO MOTHERS ON DAY 15 OF GESTATION (STUDY DURATION: 59 WK), Tumor Site: Type of Lesion: NASAL CAVITY: ADENOCARCINOMA, ADRENAL GLAND: TUMOR) was “active; positive”, the carcinogen call (Species: HAMSTER, Strain/Sex: SYRIAN/MALE, Route: SUBCUTANEOUS, 1, 5, 10, 20 MG/KG ONCE ADMINISTERED TO MOTHERS ON DAY 15 OF GESTATION (STUDY DURATION: 59 WK), 1, 5, 10, 20 MG/KG ONCE ADMINISTERED TO MOTHERS ON DAY 15 OF GESTATION (STUDY DURATION: 59 WK), Tumor Site: Type of Lesion: NASAL CAVITY: ADENOCARCINOMA, ADRENAL GLAND: TUMOR) was “active; positive” and the carcinogen call (Species: HAMSTER, Strain/Sex: SYRIAN/MALE, Route: TRANSPLACENTAL, 50 MG/KG IN DISTILLED WATER ADMINISTERED INTRATRACHEALLY TO MOTHERS ON DAY 15 OF GESTATION (STUDY DURATION: 48 WK), Tumor Site: Type of Lesion: NASAL CAVITY: TUMOR) was “active; positive”. For the same compound, the carcinogen call (Species: MOUSE, Strain/Sex: C3B6F1/FEMALE, Route: TRANSPLACENTAL, 100 MG/KG (0.5 MMOL) IN 0.9% STERILE SALINE ADMINISTERED INTRAPERITONEALLY ON DAYS 14, 16 AND 18 OF GESTATION (STUDY) was “inactive; negative”, the carcinogen call (Species: MOUSE, Strain/Sex: C3B6F1/MALE, Route: TRANSPLACENTAL, 100 MG/KG (0.5 MMOL) IN 0.9% STERILE SALINE ADMINISTERED INTRAPERITONEALLY ON DAYS 14, 16 AND 18 OF GESTATION (STUDY, Tumor Site: Type of Lesion: LIVER: HEPATOCELLULAR ADENOMA OR CARCINOMA) was “active; positive” and the carcinogen call (Species: MOUSE, Strain/Sex: C3H/HE/FEMALE, Route: INTRAPERITONEAL, 100 MG/KG (0.5 MMOL) IN 0.9% STERILE SALINE ONCE ON DAYS 14, 16 AND 18 OF PREGNANCY (STUDY DURATION: 24 WK), Tumor Site: Type of Lesion: LUNG: TUMOR) was “active; positive”. For the same compound, the carcinogen call (Species: MOUSE, Strain/Sex: STRAIN-A/FEMALE, Route: GAVAGE, 1, 2, 3 UMOL IN 0.1 ML COTTONSEED OIL 1/WK FOR 8 WK (STUDY DURATION: 26 WK), 1, 2, 3 UMOL IN 0.1 ML COTTONSEED OIL 1/WK FOR 8 WK (STUDY DURATION: 26 WK), Tumor Site: Type of Lesion: LUNG: ADENOMA) was “active; positive”, the carcinogen call (Species: MOUSE, Strain/Sex: STRAIN-A/FEMALE, Route: INTRAPERITONEAL, 1, 2, 3 UMOL IN 0.1 ML COTTONSEED OIL 1/WK FOR 8 WK (STUDY DURATION: 26 WK), 1, 2, 3 UMOL IN 0.1 ML COTTONSEED OIL 1/WK FOR 8 WK (STUDY DURATION: 26 WK), Tumor Site: Type of Lesion: LUNG: ADENOMA) was “active; positive” and the carcinogen call (Species: MOUSE, Strain/Sex: STRAIN-A/FEMALE, Route: INTRAPERITONEAL, 5, 20 UMOL TOTAL DOSE ADMINISTERED IN SUBDOSES 3/WK FOR 7 WK (STUDY DURATION: 37 WK), 5, 20 UMOL TOTAL DOSE ADMINISTERED IN SUBDOSES 3/WK FOR 7 WK (STUDY DURATION: 37 WK), Tumor Site: Type of Lesion: LUNG: TUMOR) was “active; positive”. For the same compound, the carcinogen call (Species: MOUSE, Strain/Sex: STRAIN-A/FEMALE, Route: INTRAPERITONEAL, 20 UMOL MOUSE (TOTAL DOSE) ADMINISTERED IN 0.1 ML SALINE 3/WK (TOTAL 20 INJECTIONS) (STUDY DURATION: 37 WK), Tumor Site: Type of Lesion: LUNG: ADENOCARCINOMA, ADENOMA) was “active; positive”, the carcinogen call (Species: MOUSE, Strain/Sex: STRAIN-A/FEMALE, Route: TRANSPLACENTAL, 100 MG/KG (0.5 MMOL) IN 0.9% STERILE SALINE ADMINISTERED INTRAPERITONEALLY ON DAYS 14, 16 AND 18 OF GESTATION (STUDY, Tumor Site: Type of Lesion: LUNG: TUMOR) was “active; positive” and the carcinogen call (Species: MOUSE, Strain/Sex: STRAIN-A/MALE, Route: TRANSPLACENTAL, 100 MG/KG (0.5 MMOL) IN 0.9% STERILE SALINE ADMINISTERED INTRAPERITONEALLY ON DAYS 14, 16 AND 18 OF GESTATION (STUDY) was “inactive; negative”. For the same compound, the carcinogen call (Species: MOUSE, Strain/Sex: SWISS/FEMALE, Route: INTRAPERITONEAL, 50 MG/KG IN STERILE SALINE ADMINISTERED ON POSTNATAL D 1, 3, 5, 7 AND 10 (STUDY DURATION: 15 MO), Tumor Site: Type of Lesion: LIVER: HEPATOCELLULAR ADENOMA OR CARCINOMA, LUNG: TUMOR) was “active; positive”, the carcinogen call (Species: MOUSE, Strain/Sex: SWISS/FEMALE, Route: TRANSPLACENTAL, 100 MG/KG (0.5 MMOL) IN 0.9% STERILE SALINE ADMINISTERED INTRAPERITONEALLY ON DAYS 15, 17 AND 19 OF GESTATION (STUDY) was “inactive; negative” and the carcinogen call (Species: MOUSE, Strain/Sex: SWISS/MALE, Route: INTRAPERITONEAL, 50 MG/KG IN STERILE SALINE ADMINISTERED ON POSTNATAL D 1, 3, 5, 7 AND 10 (STUDY DURATION: 15 MO), Tumor Site: Type of Lesion: LIVER: HEPATOCELLULAR ADENOMA OR CARCINOMA, LUNG: TUMOR) was “active; positive”. The carcinogen call (Species: MOUSE, Strain/Sex: SWISS/MALE, Route: TRANSPLACENTAL, 100 MG/KG (0.5 MMOL) IN 0.9% STERILE SALINE ADMINISTERED INTRAPERITONEALLY ON DAYS 15, 17 AND 19 OF GESTATION (STUDY) was “inactive; negative”, the carcinogen call (Species: RAT, Strain/Sex: F344/FEMALE, Route: GAVAGE, 11 MG/WK FOR A TOTAL DOSE OF 1.3 MMOL (STUDY DYRATION: 50 WK), Tumor Site: Type of Lesion: LIVER: TUMOR, LUNG: TUMOR, NASAL MUCOSA: TUMOR, Tumor Site: Type of Lesion: LIVER: TUMOR, LUNG: TUMOR, NASAL MUCOSA: TUMOR) was “active; positive” and the carcinogen call (Species: RAT, Strain/Sex: F344/FEMALE, Route: INTRAVESICULAR, 5.5 MG IN 0.2 ML ETHANOL: DEIONIZED WATER (1:3) 2/WK FOR 30 WK (TOTAL DOSE 1.5 MMOL) (STUDY DURATION: LIFESPAN), Tumor Site: Type of Lesion: LUNG: TUMOR, LIVER: TUMOR) was “active; positive”. For the same compound, the carcinogen call (Species: RAT, Strain/Sex: F344/FEMALE, Route: SUBCUTANEOUS, 1, 3, 9 MMOL/KG BW (TOTAL DOSE) WITH SUBDOSES GIVEN 3/WK FOR 20 WK WITH A 2 WK INTERRUPTION AFTER 7 WK (STUDY DURATIO, 1, 3, 9 MMOL/KG BW (TOTAL DOSE) WITH SUBDOSES GIVEN 3/WK FOR 20 WK WITH A 2 WK INTERRUPTION AFTER 7 WK (STUDY DURATIO, Tumor Site: Type of Lesion: NASAL CAVITY: TUMORS, LUNG: TUMORS, LIVER: TUMORS, Tumor Site: Type of Lesion: NASAL CAVITY: TUMORS, LUNG: TUMORS, LIVER: TUMORS) was “active; positive”, the carcinogen call (Species: RAT, Strain/Sex: F344/MALE, Route: MUCOUS MEMBRANE, 0.3 ML OF A 15 MMOL WATER SOLUTION 1/D 3 D/WK FOR 1 WK THEN 1/D 5 D/WK FOR WK 2-4 THEN 2/D 5 D/WK FOR WK 5-61 (STUDY, Tumor Site: Type of Lesion: LUNG: ADENOSQUAMOUS CARCINOMA, ADENOCARCINOMA, ADENOMA, NASAL CAVITY: CARCINOMA, PAPILLOMA, ADENOMA, ORAL CAVITY: PAPILL, Tumor Site: Type of Lesion: LUNG: ADENOSQUAMOUS CARCINOMA, ADENOCARCINOMA, ADENOMA, NASAL CAVITY: CARCINOMA, PAPILLOMA, ADENOMA, ORAL CAVITY: PAPILL) was “active; positive” and the carcinogen call (Species: RAT, Strain/Sex: F344/MALE, Route: ORAL, 0.5, 1, 5 PPM IN DRINKING WATER FOR DURATION OF STUDY (TOTAL DOSE: 0; 0.073; 0.17; 0.68 MMOL/KG) (STUDY DURATION: 128, 0.5, 1, 5 PPM IN DRINKING WATER FOR DURATION OF STUDY (TOTAL DOSE: 0; 0.073; 0.17; 0.68 MMOL/KG) (STUDY DURATION: 128, Tumor Site: Type of Lesion: NASAL CAVITY: TUMOR, LIVER: ADENOMA, HEPATOMA, LUNG: ADENOMA, ADENOCARCINOMA, ADENOSQUAMOUS CARCINOMA, SQUAMOUS CELL CAR, Tumor Site: Type of Lesion: NASAL CAVITY: TUMOR, LIVER: ADENOMA, HEPATOMA, LUNG: ADENOMA, ADENOCARCINOMA, ADENOSQUAMOUS CARCINOMA, SQUAMOUS CELL CAR) was “active; positive”. For the same compound, the carcinogen call (Species: RAT, Strain/Sex: F344/MALE, Route: SUBCUTANEOUS, 1, 3, 9 MMOL/KG BW (TOTAL DOSE) WITH SUBDOSES GIVEN 3/WK FOR 20 WK WITH A 2 WK INTERRUPTION AFTER 7 WK (STUDY DURATIO, 1, 3, 9 MMOL/KG BW (TOTAL DOSE) WITH SUBDOSES GIVEN 3/WK FOR 20 WK WITH A 2 WK INTERRUPTION AFTER 7 WK (STUDY DURATIO, Tumor Site: Type of Lesion: NASAL CAVITY: TUMORS, LUNG: TUMORS, LIVER: TUMORS, Tumor Site: Type of Lesion: NASAL CAVITY: TUMORS, LUNG: TUMORS, LIVER: TUMORS) was “active; positive”.
